From BigSolDB 2.1

COC(=O)Nc1nc2ccc(Sc3ccccc3)cc2[nH]1
solubility (mole fraction)
Settings | in 1,4-dioxane | in acetone | in acetonitrile | in ethanol | in ethyl acetate | in isopropanol | in methanol | in n-butanol | in n-propanol
273.15 K | – | 0.000154 | 1.31e-05 | 4.24e-05 | 0.000266 | 2.01e-05 | 3.69e-05 | 7.43e-05 | 5.94e-05
278.15 K | – | 0.000167 | 1.53e-05 | 4.62e-05 | 0.000308 | 2.39e-05 | 3.99e-05 | 8.03e-05 | 6.58e-05
283.15 K | – | 0.00018 | 1.79e-05 | 5.02e-05 | 0.000361 | 2.8e-05 | 4.28e-05 | 8.71e-05 | 7.33e-05
288.15 K | 0.0011 | 0.000194 | 2.06e-05 | 5.44e-05 | 0.000415 | 3.24e-05 | 4.57e-05 | 9.47e-05 | 8.16e-05
293.15 K | 0.00127 | 0.000209 | 2.36e-05 | 5.92e-05 | 0.000468 | 3.65e-05 | 4.86e-05 | 0.000102 | 8.97e-05
298.15 K | 0.00145 | 0.000225 | 2.68e-05 | 6.41e-05 | 0.000533 | 4.12e-05 | 5.14e-05 | 0.000111 | 9.97e-05
303.15 K | 0.00166 | 0.000241 | 3.06e-05 | 6.99e-05 | 0.000601 | 4.62e-05 | 5.54e-05 | 0.00012 | 0.000111
308.15 K | 0.00189 | 0.00026 | 3.47e-05 | 7.62e-05 | 0.000684 | 5.2e-05 | 5.94e-05 | 0.000132 | 0.000123
313.15 K | 0.00214 | 0.00028 | 3.99e-05 | 8.36e-05 | 0.000768 | 5.82e-05 | 6.33e-05 | 0.000143 | 0.000137
